# Measured values: patent publication US20080085884A1, “Melanin Concentrating Hormone Receptor-1 Antagonist Pyridinones” (Pfizer Inc, priority 2006, published 2008)
# Counter-ions that a name gives are not always drawn.
# Biological target: T1, human MCHR1 (Homo sapiens, UniProt Q99705)
# T1 construct: host or cells: CHO
# Test: Cyclic AMP assay (MCHR-1 functional antagonism)
# Type: cell-based
# Conditions: CHO cells stably expressing human MCHR1; cAMP accumulation with 25 uM forskolin and 0.2 nM MCH, 90 min; Ki from IC50 by Cheng-Prusoff; read-out: MCHR-1 functional Ki
# Protocol: CHO cell lines stably expressing the human MCHR1 (Euroscreen, Brussels, Belgium) were maintained in DMEM containing Glutamax (Invitrogen, Carlsbad, Calif.), 10% FBS, 400 ug/ml Geneticin.
# Cyclic AMP assays. CHO cells stably expressing the human MCHR1 receptors were collected and resuspended at a density of 4.0×10^6 cells/ml in F12 (Hams) media and seeded (20,000 cells per well) into 384-well, solid white Greiner assay plates. […] Cells were incubated at 37° C./5% CO2 for 90 minutes and cAMP accumulation subsequently determined by DiscoveRx Hithunter c-AMP II Assay kit (GE Healthcare, Buckinghamshire, UK) in accordance with manufactures instructions. Luminescence was measured on a LEADseaker imaging system (GE Healthcare, Buckinghamshire, UK). IC50 values were calculated from dose-response data fit using an in-house computer graphics and statistics program.
# T1 sequence (Q99705 whole entry): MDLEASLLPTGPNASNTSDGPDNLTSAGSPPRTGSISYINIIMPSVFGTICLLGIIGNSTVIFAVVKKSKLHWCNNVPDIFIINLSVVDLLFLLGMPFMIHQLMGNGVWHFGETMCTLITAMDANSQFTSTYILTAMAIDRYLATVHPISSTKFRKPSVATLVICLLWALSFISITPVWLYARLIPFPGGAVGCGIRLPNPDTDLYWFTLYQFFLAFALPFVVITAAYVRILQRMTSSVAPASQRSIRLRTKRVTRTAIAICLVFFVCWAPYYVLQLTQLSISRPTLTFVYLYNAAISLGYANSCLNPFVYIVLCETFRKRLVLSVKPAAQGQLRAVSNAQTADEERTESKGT
row,Ki [nM],SMILES
1,4.88,"CN[C@H]1CCN(c2ccc(-n3ccc(OCc4ccccc4)cc3=O)cn2)C1 [Example 13, 4-(Benzyloxy)-6′-[(3S)-3-(methylamino)pyrrolidin-1-yl]-2H-1,3′-bipyridin-2-one dihydrochloride]"
2,6.78,"CCN[C@@H]1CCN(c2ccc(-n3ccc(OCc4ccccc4)cc3=O)cn2)C1 [Example 19, 4-(Benzyloxy)-6′-[(3R)-3-(ethylamino)pyrrolidin-1-yl]-2H-1,3′-bipyridin-2-one]"
3,19.2,CCN(C(=O)OC)[C@@H]1CCN(c2ccc(-n3ccc(OCc4ccccc4)cc3=O)cn2)C1 [Example 178]
4,147,O=c1cc(OCc2ccc(F)cc2)ccn1-c1ccc(N2CC(N3CCCC3)C2)nc1 [Example 95]
5,15.7,"CCN(C(=O)OC(C)(C)C)[C@@H]1CCN(c2ccc(-n3ccc(OCc4ccccc4)cc3=O)cn2)C1 [Example 23a, tert-Butyl {(3R)-1-[4-(benzyloxy)-2-oxo-2H-1,3′-bipyridin-6′-yl]pyrrolidin-3-yl}ethylcarbamate]"
6,60.1,O=c1cc(OCc2ccc(Cl)c(F)c2)ccn1-c1ccc(N2CC[C@@H](O)C2)nc1 [Example 146]
7,3.46,CN[C@H]1CCN(c2ccc(-n3ccc(OCc4cccc(Cl)c4)cc3=O)cn2)C1 [Example 149]
8,42.7,COC1CCN(c2ccc(-n3ccc(OCc4ccccc4)cc3=O)cn2)C1 (centres unmarked) [Example 37]
9,47.7,"CC(=O)N1CCN(c2ccc(-n3ccc(OCc4ccccc4)cc3=O)cn2)CC1 [Example 1, 6′-(4-Acetylpiperazin-1-yl)-4-(benzyloxy)-2H-1,3′-bipyridin-2-one]"
10,77.5,CC1(O)CCN(c2ccc(-n3ccc(OCc4ccccc4)cc3=O)cn2)C1 (centres unmarked) [Example 240]
11,605,CCC(=O)N[C@@H]1CCN(c2ccc(-n3ccc(OCc4ccccc4)cc3=O)cn2)C1 [Example 196]
12,26.2,CC(=O)N[C@H]1CCN(c2ccc(-n3ccc(OCc4ccc(Cl)cc4)cc3=O)cn2)C1 [Example 174]
13,184,CNC1CN(c2ccc(-n3ccc(OCc4ccc(F)cc4)cc3=O)cn2)C1 [Example 112]
14,42,CCO[C@@H]1CCN(c2ccc(-n3ccc(OCc4ccccc4)cc3=O)cn2)C1 [Example 39]
15,110,CN[C@H]1CCN(c2ccc(-n3ccc(COc4ccccc4)cc3=O)cn2)C1 [Example 122]
16,29.1,CC(C)C(=O)N1C[C@@H]2CN(c3ccc(-n4ccc(OCc5ccc(F)cc5)cc4=O)cn3)C[C@@H]2C1 [Example 170]
17,111,"CN(C)C1CCN(c2ccc(-n3ccc(OCc4ccccc4)cc3=O)cn2)CC1 [Example 5, 4-(Benzyloxy)-6′-[4-(dimethylamino)piperidin-1-yl]-2H-1,3′-bipyridin-2-one]"
18,680,CC(C)CC1CN(c2ccc(-n3ccc(OCc4ccccc4)cc3=O)cn2)CCN1 (centres unmarked) [Example 222]
19,6.34,N[C@@H]1CCN(c2ccc(-n3ccc(OCc4ccc(Cl)cc4)cc3=O)cn2)C1 [Example 105]

row,Ki [nM],SMILES
1,9.98,"CN(C(=O)OC(C)(C)C)[C@H]1CCN(c2ccc(-n3ccc(OCc4ccccc4)cc3=O)cn2)C1 [Example 12, tert-Butyl {(3S)-1-[4-(benzyloxy)-2-oxo-2H-1,3′-bipyridin-6′-yl]pyrrolidin-3-yl}methyl carbamate]"
2,97.2,"O=c1cc(OCc2ccccc2)ccn1-c1ccc(N2CC[C@@H](O)C2)nc1 [Example 11, 4-(Benzyloxy)-6′-[(3R)-3hydroxypyrrolidin-1-yl]-2H-1,3′-bipyridin-2-one]"
3,144,COC(=O)N[C@@H]1CCN(c2ccc(-n3ccc(OCc4ccc(F)cc4)cc3=O)cn2)C1 [Example 192]
4,133,"O=c1cc(OCc2ccccc2)ccn1-c1ccc(N2CC[C@H](O)C2)nc1 [Example 16, 4-(benzyloxy)-6′-[(3S)-3-hydroxypyrrolidin-1-yl]-2H-1,3′-bipyridin-2-one]"
5,31.3,COC(=O)N1C[C@@H]2CN(c3ccc(-n4ccc(OCc5ccc(F)cc5)cc4=O)cn3)C[C@@H]2C1 [Example 195]
6,191,O=c1cc(OCc2ccc(F)cc2)ccn1-c1ccc(N2CCC[C@@H](O)C2)nc1 [Example 87]
7,396,O=c1cc(OCc2ccc(F)cc2)ccn1-c1ccc(N2CC(O)C2)nc1 [Example 91]
8,113,CC1(O)CCN(c2ccc(-n3ccc(OCc4ccccc4)cc3=O)cn2)CC1 [Example 44]
9,10.6,CC(C)N1C[C@H]2CN(c3ccc(-n4ccc(OCc5ccccc5)cc4=O)cn3)C[C@H]2C1 [Example 209]
10,29.9,CCOC(=O)N[C@H]1CCN(c2ccc(-n3ccc(OCc4ccccc4)cc3=O)cn2)C1 [Example 176]
11,125,O=c1cc(OCc2ccc(F)c(F)c2)ccn1-c1ccc(N2CC[C@@H](O)C2)nc1 [Example 148]
12,212,O=c1cc(OCc2ccccc2)ccn1-c1ccc(N2CCC(O)CC2)nc1 [Example 46]
13,10.1,"CN1C[C@@H]2CN(c3ccc(-n4ccc(OCc5ccccc5)cc4=O)cn3)C[C@@H]2C1 [Example 3, 4-(Benzyloxy)-6′-[(3aR,6aS)-5-methylhexahydropyrrolo[3,4-c]pyrrol-2(1H)-yl]-2H-1,3′-bipyridin-2-one]"
14,69.8,CNC1CCN(c2ccc(-n3ccc(OCc4ccccc4)cc3=O)cn2)CC1 [Example 230]
15,8.86,"CNC1(C)CCN(c2ccc(-n3ccc(OCc4ccccc4)cc3=O)cn2)C1 (single isomer, unassigned) [Example 18a, 4-(Benzyloxy)-6′-[3-methyl-3-(methylamino)pyrrolidin-1-yl]-2H-1,3′-bipyridin-2-one]"
16,18.9,COC(=O)N(C)[C@@H]1CCN(c2ccc(-n3ccc(OCc4ccc(F)cc4)cc3=O)cn2)C1 [Example 179]
17,34.1,CCO[C@H]1CCN(c2ccc(-n3ccc(OCc4ccccc4)cc3=O)cn2)C1 [Example 40]
18,218,COC(=O)N[C@@H]1CCN(c2ccc(-n3ccc(OCc4ccccc4)cc3=O)cn2)C1 [Example 188]
19,26.2,O=c1cc(OCc2ccc(Cl)cc2F)ccn1-c1ccc(N2CC[C@@H](O)C2)nc1 [Example 147]

row,Ki [nM],SMILES
1,8.67,"O=c1cc(OCc2ccccc2)ccn1-c1ccc(N2C[C@H]3CNC[C@H]3C2)nc1 [Example 8, 4-(Benzyloxy)-6′-[(3aR,6aS)-hexahydropyrrolo[3,4-c]pyrrol-2(1H)-yl]-2H-1,3′-bipyridin-2-one dihydrochloride]"
2,18.3,"CNC1(C)CCN(c2ccc(-n3ccc(OCc4ccccc4)cc3=O)cn2)C1 (single isomer, unassigned) [Example 18b, 4-(Benzyloxy)-6′-[3-methyl-3-(methylamino)pyrrolidin-1-yl]-2H-1,3′-bipyridin-2-one]"
3,46.6,COC(=O)N[C@H]1CCN(c2ccc(-n3ccc(OCc4ccc(Cl)cc4)cc3=O)cn2)C1 [Example 194]
4,106,NC1CCN(c2ccc(-n3ccc(OCc4ccccc4)cc3=O)cn2)CC1 [Example 214]
5,28.8,CNC1CCN(c2ccc(-n3ccc(OCc4ccccc4)cc3=O)cn2)CC1 [Example 58]
6,41.2,CN(C)C1CN(c2ccc(-n3ccc(OCc4ccccc4)cc3=O)cn2)C1 [Example 239]
7,50.4,O=c1cc(OCc2ccc(F)cc2)ccn1-c1ccc(N2CC[C@@H](O)C2)nc1 [Example 113]
8,3160,O=c1cc(OCc2ccccc2)ccn1-c1ccc(N2CC[C@@H](O)C2)nn1 [Example 157]
9,19.4,CCCC(=O)N[C@H]1CCN(c2ccc(-n3ccc(OCc4ccccc4)cc3=O)cn2)C1 [Example 169]
10,1170,COC(=O)N1CCN(c2ccc(-n3ccc(OCc4ccc(F)cc4)cc3=O)cn2)CC1 [Example 81]
11,3.66,CN(C)[C@H]1CCN(c2ccc(-n3ccc(OCc4ccccc4)cc3=O)cn2)C1 [Example 57]
12,3.62,"CN[C@@H]1CCN(c2ccc(-n3ccc(OCc4ccccc4)cc3=O)cn2)C1 [Example 15, 4-(benzyloxy)-6′-[(3R)-3-(methylamino)pyrrolidin-1-yl]-2H-1,3′-bipyridin-2-one dihydrochloride]"
13,80.9,"CN(C)C(=O)C1CCN(c2ccc(-n3ccc(OCc4ccccc4)cc3=O)cn2)C1 (racemic) [Example 25, 1-[4-(Benzyloxy)-2-oxo-2H-1,3′-bipyridin-6′-yl]-N,N-dimethylpyrrolidine-3-carboxamide]"
14,75.5,CO[C@H]1CCN(c2ccc(-n3ccc(OCc4ccccc4)cc3=O)cn2)C1 [Example 36]
15,87.1,"CCN1CCN(c2ccc(-n3ccc(OCc4ccccc4)cc3=O)cn2)CC1 [Example 7, 4-(Benzyloxy)-6′-(4-ethylpiperazin-1-yl)-2H-1,3′-bipyridin-2-one]"
16,41.6,O=c1cc(OCc2ccccc2)ccn1-c1ccc(N2CCCCC2)nc1 [Example 110]
17,47.9,O=c1cc(OCc2ccc(F)cc2)ccn1-c1ccc(N2CC[C@H](O)C2)nc1 [Example 114]
18,11,CC(=O)N(C)[C@@H]1CCN(c2ccc(-n3ccc(OCc4ccc(Cl)cc4)cc3=O)cn2)C1 [Example 172]
19,2.94,CC(C)N(C)[C@H]1CCN(c2ccc(-n3ccc(OCc4ccccc4)cc3=O)cn2)C1 [Example 60]

row,SMILES,Ki [nM]
1,O=c1cc(OCc2ccccc2)ccn1-c1ccc(N2CC3CCC(C2)N3)nc1 [Example 69],124

# Same assay, conditions: MCHR-1 functional Ki (nM), CHO cells stably expressing human MCHR1; cAMP accumulation with 25 uM forskolin and 0.2 nM MCH, 90 min; Ki from IC50 by Cheng-Prusoff
row,SMILES,Ki [nM]
1,N[C@@H]1CCN(c2ccc(-n3ccc(OCc4ccccc4)cc3=O)cn2)C1 [Example 54],5.91
